Where two headings read alike, the source gives them in different places. Each block holds one molecule with its values, some of them ahead of it.
How the values were obtained:
[1] = target: T1, CDK2/A (Homo sapiens, UniProt P24941)
Method: (§1) Human CDK1/B was purchased from New England Biolabs or prepared as described,[46] CDK2/A2 was prepared as described,[46] CDK4/D was provided by AstraZeneca, and CDK7/H and CDK9/T were purchased from Upstate. IC50 values for CDK1/B, CDK2/A, and CDK4/D were determined as described.[23] IC50 values for CDK7/H and CDK9/H were determined according to the supplier’s instructions (Upstate).

[2] = target: T2, Human CDK1/B (Homo sapiens, UniProt P06493)
Method: as §1

[3] = target: T3, CDK7/H (Homo sapiens, UniProt P50613)
Method: as §1

[4] = target: T4, CDK9/T (Homo sapiens, UniProt P50750)
Method: as §1

[5] = target: T1, CDK2/A; test: biochemical
Method: as §1

[6] = target: CDK4/D (Homo sapiens, UniProt P11802); test: biochemical; settings: for inhibition at 100 µM: read-out: CDK4/D % inhibition at 100 μM; for inhibition at 10 µM: read-out: CDK4 Inhibition at 10 μM (%)
Method: as §1

[7] = target: T3, CDK7/H; test: biochemical; settings: for inhibition at 10 µM: read-out: CDK7 Inhibition at 10 μM (%)
Method: as §1

[8] = target: T5, CDK5 (Homo sapiens, UniProt Q00535); test: biochemical; settings: read-out: CDK5 Inhibition at 10 μM (%)
[9] = target: T2, Human CDK1/B; test: biochemical; settings: read-out: CDK1 Inhibition at 10 μM (%)
Method: as §1

[10] = target: T4, CDK9/T; test: biochemical; settings: read-out: CDK9 Inhibition at 10 μM (%)
Method: as §1

[11] = target: T5, CDK5; settings: read-out: CDK5 Inhibitory Activity IC50; Table 3
[12] = system: Rb-proficient human tumor cell lines (A375, Calu-6, MDA-MB-231, SJSA1, SKUT-1B); test: 5-day growth inhibition SRB assay; settings: for GI50: Homo sapiens, 120 h
Method: Dose–response curves and GI50 bar charts represent the mean ± SEM from three or four independent experiments.
The ability of selected compounds to inhibit cell growth was assessed in a panel of human cancer cell lines using an SRB assay.[45] […] At least three independent experiments were performed. Growth inhibitory GI50 values were calculated using GraphPad Prism software (GraphPad Software, Inc., San Diego, CA).

[13] = read-out: CDK2 Inhibition IC50, Table 1, ATP 12.5 μM
[14] = read-out: CDK1/B IC50, Table 2, ATP 12.5 μM
[15] = read-out: CDK7/H IC50, Table 2, ATP 100 μM
[16] = read-out: CDK9/T IC50, Table 2, ATP 100 μM
[17] = read-out: CDK2 Inhibitory Activity IC50, Table 3
[18] = read-out: CDK1 Inhibitory Activity IC50, Table 3
[19] = read-out: CDK7 Inhibitory Activity IC50, Table 3
[20] = read-out: CDK9 Inhibitory Activity IC50, Table 3
[21] = read-out: CDK2 Inhibition at 10 μM (%)

T5 sequence (Q00535 whole entry, species assumed): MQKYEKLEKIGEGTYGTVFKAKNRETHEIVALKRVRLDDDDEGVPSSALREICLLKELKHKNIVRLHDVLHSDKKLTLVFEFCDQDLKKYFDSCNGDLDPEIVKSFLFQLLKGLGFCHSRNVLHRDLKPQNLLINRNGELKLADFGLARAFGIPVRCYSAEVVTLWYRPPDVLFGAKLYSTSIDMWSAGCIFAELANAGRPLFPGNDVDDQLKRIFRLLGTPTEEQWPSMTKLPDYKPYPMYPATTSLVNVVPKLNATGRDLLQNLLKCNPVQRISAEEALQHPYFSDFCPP
T5 sequence (Q15078 99-307 partner limits assumed, species assumed): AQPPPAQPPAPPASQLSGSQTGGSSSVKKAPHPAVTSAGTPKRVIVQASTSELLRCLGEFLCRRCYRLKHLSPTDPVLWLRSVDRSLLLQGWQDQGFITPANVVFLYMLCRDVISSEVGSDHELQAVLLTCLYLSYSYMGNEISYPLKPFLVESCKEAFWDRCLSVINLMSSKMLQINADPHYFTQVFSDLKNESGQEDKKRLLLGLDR
Sequence of CDK4/D (P11802 whole entry): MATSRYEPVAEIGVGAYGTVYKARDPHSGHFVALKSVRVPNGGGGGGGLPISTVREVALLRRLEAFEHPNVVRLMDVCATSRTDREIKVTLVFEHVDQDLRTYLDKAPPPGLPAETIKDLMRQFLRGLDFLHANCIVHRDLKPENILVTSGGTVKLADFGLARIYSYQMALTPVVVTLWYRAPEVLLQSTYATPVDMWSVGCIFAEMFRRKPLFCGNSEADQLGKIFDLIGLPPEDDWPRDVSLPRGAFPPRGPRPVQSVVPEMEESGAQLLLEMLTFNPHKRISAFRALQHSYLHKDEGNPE
Sequence of CDK4/D (P24385 whole entry partner): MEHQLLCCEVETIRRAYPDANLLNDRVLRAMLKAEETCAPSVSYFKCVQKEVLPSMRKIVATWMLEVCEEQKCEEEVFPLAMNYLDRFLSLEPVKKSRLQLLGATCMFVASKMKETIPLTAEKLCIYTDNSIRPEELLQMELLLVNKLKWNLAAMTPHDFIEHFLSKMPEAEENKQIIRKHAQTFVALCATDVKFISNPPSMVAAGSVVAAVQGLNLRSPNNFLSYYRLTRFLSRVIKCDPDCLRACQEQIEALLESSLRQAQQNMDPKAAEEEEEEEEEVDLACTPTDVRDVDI
T2 sequence (P06493 whole entry): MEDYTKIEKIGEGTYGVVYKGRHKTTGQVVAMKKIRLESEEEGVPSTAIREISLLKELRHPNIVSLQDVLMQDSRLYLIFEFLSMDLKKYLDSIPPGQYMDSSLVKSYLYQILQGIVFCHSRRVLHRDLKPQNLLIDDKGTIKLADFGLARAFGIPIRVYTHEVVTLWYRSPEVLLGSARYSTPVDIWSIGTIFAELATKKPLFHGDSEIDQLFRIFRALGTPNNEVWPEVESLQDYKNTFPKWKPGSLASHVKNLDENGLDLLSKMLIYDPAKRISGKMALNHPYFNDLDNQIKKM
T2 sequence (P14635 whole entry partner): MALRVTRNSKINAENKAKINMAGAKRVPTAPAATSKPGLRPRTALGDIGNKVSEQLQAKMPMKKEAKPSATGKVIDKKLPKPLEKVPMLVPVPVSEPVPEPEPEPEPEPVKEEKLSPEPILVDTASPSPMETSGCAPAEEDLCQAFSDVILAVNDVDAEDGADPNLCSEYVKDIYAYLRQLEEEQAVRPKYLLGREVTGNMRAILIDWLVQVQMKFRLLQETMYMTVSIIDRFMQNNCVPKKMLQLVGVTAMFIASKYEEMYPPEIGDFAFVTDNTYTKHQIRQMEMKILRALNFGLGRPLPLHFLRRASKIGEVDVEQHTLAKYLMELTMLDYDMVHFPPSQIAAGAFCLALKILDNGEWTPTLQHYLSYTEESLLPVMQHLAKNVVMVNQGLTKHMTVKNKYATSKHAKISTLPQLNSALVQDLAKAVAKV
T4 sequence (P50750 whole entry): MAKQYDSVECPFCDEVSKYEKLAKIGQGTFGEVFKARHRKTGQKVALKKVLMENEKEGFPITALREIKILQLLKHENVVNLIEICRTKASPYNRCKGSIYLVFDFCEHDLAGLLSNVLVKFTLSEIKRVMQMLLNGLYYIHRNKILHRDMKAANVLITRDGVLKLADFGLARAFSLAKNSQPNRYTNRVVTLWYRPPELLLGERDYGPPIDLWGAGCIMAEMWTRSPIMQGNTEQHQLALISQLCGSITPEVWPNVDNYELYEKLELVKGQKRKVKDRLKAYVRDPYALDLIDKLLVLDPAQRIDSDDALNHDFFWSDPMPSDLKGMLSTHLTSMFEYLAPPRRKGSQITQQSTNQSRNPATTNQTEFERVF
T4 sequence (O60563 whole entry partner): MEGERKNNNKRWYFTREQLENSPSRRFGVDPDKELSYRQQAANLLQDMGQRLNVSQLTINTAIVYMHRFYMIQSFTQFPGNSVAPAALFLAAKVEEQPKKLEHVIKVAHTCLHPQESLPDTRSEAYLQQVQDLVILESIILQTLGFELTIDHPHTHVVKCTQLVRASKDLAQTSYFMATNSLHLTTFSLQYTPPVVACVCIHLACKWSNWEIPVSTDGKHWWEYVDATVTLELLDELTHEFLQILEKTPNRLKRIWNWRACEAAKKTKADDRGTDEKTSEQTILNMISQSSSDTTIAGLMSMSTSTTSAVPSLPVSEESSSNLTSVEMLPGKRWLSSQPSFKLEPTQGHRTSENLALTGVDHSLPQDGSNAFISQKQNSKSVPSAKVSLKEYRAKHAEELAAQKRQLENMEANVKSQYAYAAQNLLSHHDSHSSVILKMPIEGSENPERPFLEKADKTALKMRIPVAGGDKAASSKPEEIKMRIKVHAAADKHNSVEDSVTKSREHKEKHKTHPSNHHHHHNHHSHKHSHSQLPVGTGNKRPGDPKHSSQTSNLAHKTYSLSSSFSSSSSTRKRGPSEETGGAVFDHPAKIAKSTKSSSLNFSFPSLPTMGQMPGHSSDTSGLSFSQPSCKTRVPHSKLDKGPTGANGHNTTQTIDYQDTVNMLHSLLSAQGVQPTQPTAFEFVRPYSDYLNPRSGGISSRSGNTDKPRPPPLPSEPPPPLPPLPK
T3 sequence (P50613 whole entry): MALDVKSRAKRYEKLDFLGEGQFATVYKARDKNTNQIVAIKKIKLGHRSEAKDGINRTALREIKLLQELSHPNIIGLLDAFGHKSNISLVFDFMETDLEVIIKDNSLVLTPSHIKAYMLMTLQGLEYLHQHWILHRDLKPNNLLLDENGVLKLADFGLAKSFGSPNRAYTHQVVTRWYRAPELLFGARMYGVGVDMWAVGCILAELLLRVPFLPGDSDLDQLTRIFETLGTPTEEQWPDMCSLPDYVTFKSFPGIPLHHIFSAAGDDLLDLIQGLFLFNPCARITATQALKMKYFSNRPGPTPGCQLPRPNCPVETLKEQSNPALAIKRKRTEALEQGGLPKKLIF
T3 sequence (P51946 whole entry partner): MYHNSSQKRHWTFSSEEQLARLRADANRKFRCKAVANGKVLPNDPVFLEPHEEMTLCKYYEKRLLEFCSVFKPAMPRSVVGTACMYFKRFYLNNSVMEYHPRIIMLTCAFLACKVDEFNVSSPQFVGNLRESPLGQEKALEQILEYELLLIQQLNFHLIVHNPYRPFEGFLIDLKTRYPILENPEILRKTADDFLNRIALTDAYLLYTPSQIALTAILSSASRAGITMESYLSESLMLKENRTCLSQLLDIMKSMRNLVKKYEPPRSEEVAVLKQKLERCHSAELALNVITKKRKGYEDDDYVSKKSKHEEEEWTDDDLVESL
T3 sequence (P51948 whole entry partner): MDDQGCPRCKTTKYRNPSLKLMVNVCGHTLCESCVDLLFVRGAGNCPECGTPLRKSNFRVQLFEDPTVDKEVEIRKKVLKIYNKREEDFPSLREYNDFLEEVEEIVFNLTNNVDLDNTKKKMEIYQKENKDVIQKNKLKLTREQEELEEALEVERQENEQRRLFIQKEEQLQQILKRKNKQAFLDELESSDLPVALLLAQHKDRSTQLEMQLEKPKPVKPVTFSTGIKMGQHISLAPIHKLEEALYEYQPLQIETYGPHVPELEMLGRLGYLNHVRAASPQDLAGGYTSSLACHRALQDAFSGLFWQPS

SMILES: CCC(C)Oc1nc(Nc2ccc(S(N)(=O)=O)cc2)nc2[nH]cnc12 (racemic) [Compound 34]
IC50 ([1]; read-out: CDK2/A IC50, Table 2, ATP 12.5 μM): 1.2 ± 0.5 nM
IC50 [1, 13]: 1 ± 0.5 nM
IC50 [2, 14]: 97 ± 40 nM
IC50 [3, 15]: 2.8 ± 0.1 µM
IC50 [4, 16]: 570 ± 50 nM

SMILES: C(#Cc1nc(Nc2ccccc2)nc2[nH]cnc12)c1ccccc1 [Compound 49, N-Phenyl-6-(phenylethynyl)-9H-purin-2-amine]
IC50 [1, 13]: 8900 ± 700 nM

SMILES: CC(C)[Si](C#Cc1nc(Nc2ccc(S(N)(=O)=O)cc2)nc2[nH]cnc12)(C(C)C)C(C)C [Compound 40, 4-(6-((Triisopropylsilyl)ethynyl)-9H-purin-2-ylamino)benzenesulfonamide]
IC50 [1, 13]: 17 ± 1 nM

SMILES: NS(=O)(=O)c1ccc(Nc2nc(C3CC3)c3nc[nH]c3n2)cc1 [Compound 55, 4-(6-Cyclopropyl-9H-purin-2-ylamino)benzenesulfonamide]
IC50 [1, 13]: 19 ± 1 nM

SMILES: Nc1nc2ncnc-2c[nH]1 [Compound 8, 2-Aminopurine, reference compound]
inhibition at 100 µM ([5]; read-out: CDK2 Inhibition (%) at 100 μM): 4%

SMILES: NS(=O)(=O)c1ccc(Nc2ncc3nc[nH]c3n2)cc1 [Compound 13, 4-(9H-Purin-2-ylamino)benzenesulfonamide]
fold less active/potent than 3 against CDK2 ([1]; compared with 3): ~300 fold
IC50 [1, 13]: 1500 ± 100 nM
inhibition at 100 µM [6]: 12%
IC50 [2, 14]: 15800 ± 1200 nM
IC50 [3, 15]: 75 ± 3 µM
IC50 [4, 16]: 38000 ± 11000 nM

SMILES: Nc1nc(OCC2CCCCC2)c2nn[nH]c2n1 [Compound 86, 7-(Cyclohexylmethoxy)-3H-[1,2,3]triazolo[4,5-d]pyrimidin-5-amine]
IC50 [1, 17]: 18000 ± 1000 nM
inhibition at 10 µM [7]: 13%
inhibition at 10 µM [8]: 13%
inhibition at 10 µM [9]: 21%
inhibition at 10 µM [6]: 6.2%
inhibition at 10 µM [10]: 16%

SMILES: NS(=O)(=O)c1ccc(Nc2nc(-c3ccccc3)c3nc[nH]c3n2)cc1 [Compound 70, 4-(6-Phenyl-9H-purin-2-ylamino)benzenesulfonamide]
IC50 [1, 13]: 24 ± 2 nM
IC50 [2, 14]: 730 ± 3 nM
IC50 [3, 15]: 6.8 ± 0.4 µM
IC50 [4, 16]: 570 ± 40 nM

SMILES: Nc1cc(OCC2CCCCC2)c2nc[nH]c2n1 [Compound 80, 7-(Cyclohexylmethoxy)-3H-imidazo[4,5-b]pyridin-5-amine]
IC50 [1, 17]: 28400 ± 800 nM

SMILES: NS(=O)(=O)c1ccc(Nc2nc(OCC3CCCCC3)c3cc[nH]c3n2)cc1 [Compound 98, 4-((4-(Cyclohexylmethoxy)-7H-pyrrolo[2,3-d]pyrimidin-2-yl)amino)benzenesulfonamide]
IC50 [1, 17]: 26 ± 1 nM
IC50 [11]: 4.4 ± 0.6 µM
GI50 [12]: 1 to 22 µM
IC50 [2, 18]: 2700 ± 200 nM
IC50 [3, 19]: 4.1 ± 0.2 µM
IC50 [4, 20]: 1000 ± 200 nM

SMILES: COc1ccc(-c2nc(Nc3ccc(S(N)(=O)=O)cc3)nc3[nH]cnc23)cc1 [Compound 72, 4-(6-(4-Methoxyphenyl)-9H-purin-2-ylamino)benzenesulfonamide]
IC50 [1, 13]: 52 ± 4 nM

inhibition at 10 µM [5, 21]: 10%
SMILES: c1ccc(Nc2cc(OCC3CCCCC3)n3ccnc3n2)cc1 [Compound 101, 5-Cyclohexylmethoxy-7-anilinoimidazo[1,2-a]pyrimidine]

SMILES: NS(=O)(=O)c1ccc(Nc2nc(-c3cccc4c3Sc3ccccc3S4)c3nc[nH]c3n2)cc1 [Compound 76]
IC50 [1, 13]: 6700 ± 500 nM

SMILES: COc1cccc(-c2nc(Nc3ccc(S(N)(=O)=O)cc3)nc3[nH]cnc23)c1 [Compound 71, 4-(6-(3-Methoxyphenyl)-9H-purin-2-ylamino)benzenesulfonamide]
IC50 [1, 13]: 39 ± 13 nM

SMILES: NS(=O)(=O)c1ccc(Nc2nc(OCC3CCCCC3)c3cn[nH]c3n2)cc1 [Compound 91, 4-((4-(Cyclohexylmethoxy)-1H-pyrazolo[3,4-d]pyrimidin-6-yl)amino)benzenesulfonamide]
IC50 [11]: 5.9 ± 0.1 µM
GI50 [12]: 1 to 22 µM
IC50 [3, 19]: 7 ± 0.3 µM
IC50 [4, 20]: 4600 ± 200 nM

inhibition at 10 µM [5, 21]: 36%
SMILES: NS(=O)(=O)c1ccc(Nc2cc(OCC3CCCCC3)n3ccnc3n2)cc1 [Compound 102, 5-Cyclohexylmethoxy-7-(4′-sulfamoylanilino)imidazo[1,2-a]pyrimidine]

SMILES: Nc1nc(OCC2CCCCC2)c2cn[nH]c2n1 [Compound 87, 4-(Cyclohexylmethoxy)-1H-pyrazolo[3,4-d]pyrimidin-6-amine]
IC50 [1, 17]: 16000 ± 4000 nM
inhibition at 10 µM [7]: 16%
inhibition at 10 µM [8]: 14%
inhibition at 10 µM [9]: 32%
inhibition at 10 µM [6]: 0%
inhibition at 10 µM [10]: 16%

inhibition at 10 µM [7]: 5.1%
inhibition at 10 µM ([5]; read-out: CDK2 Inhibition (%) at 10 uM): 41 ± 10%
inhibition at 100 µM ([5]; read-out: CDK2 Inhibition (%), value determined at 100 μM): 41%
inhibition at 10 µM [8]: 12%
inhibition at 10 µM [9]: 11%
inhibition at 10 µM [6]: 5.6%
inhibition at 10 µM [10]: 0%
SMILES: Nc1nc(OCC2CCCCC2)c2cc[nH]c2n1 [Compound 93, 4-(Cyclohexylmethoxy)-7H-pyrrolo[2,3-d]pyrimidin-2-amine]

SMILES: NS(=O)(=O)c1ccc(Nc2cc(OCC3CCCCC3)c3nc[nH]c3n2)cc1 [Compound 83, 4-((7-(Cyclohexylmethoxy)-3H-imidazo[4,5-b]pyridin-5-yl)amino) benzenesulfonamide]
IC50 [1, 17]: 290 ± 10 nM
inhibition at 10 µM [7]: 37%
inhibition at 10 µM [8]: 37%
inhibition at 10 µM [6]: 23 ± 1%
IC50 [2, 18]: 11000 ± 2000 nM
inhibition at 10 µM [10]: 42%

SMILES: NS(=O)(=O)c1ccc(Nc2nc(-c3ccc4c(c3)OCO4)c3nc[nH]c3n2)cc1 [Compound 74, 4-(6-(Benzo[d][1,3]dioxol-5-yl)-9H-purin-2-ylamino)benzenesulfonamide]
fold less potent than 70 (CDK2) ([1]; compared with 70): ~20 fold
IC50 [1, 13]: 580 ± 20 nM

SMILES: CC#Cc1nc(Nc2ccccc2)nc2[nH]cnc12 [Compound 48, N-Phenyl-6-(prop-1-yn-1-yl)-9H-purin-2-amine]
IC50 [1, 13]: 6400 ± 400 nM

SMILES: NS(=O)(=O)c1ccc(Nc2nc(-c3cccc(-c4ccccc4)c3)c3nc[nH]c3n2)cc1 [Compound 73, 4-((6-([1,1′-Biphenyl]-3-yl)-9H-purin-2-yl)amino)benzenesulfonamide]
selectivity for CDK2 over CDK1 ([1]; ratio of CDK1 and CDK2 IC50): ~2000 fold
IC50 [1, 13]: 44 ± 12 nM
inhibition at 100 µM ([7]; read-out: CDK7/H % inhibition at 100 μM): 28%
effect on the growth of cells ([12]; maximal concentration tested 30 μM, 5-day growth assay, GI50 could not be determined): no or limited effects
inhibition at 100 µM [6]: 26%
IC50 [2, 14]: 86000 ± 4000 nM
IC50 [4, 16]: 25000 ± 8000 nM

SMILES: NS(=O)(=O)c1ccc(Nc2nc(OCC3CCCCC3)c3nn[nH]c3n2)cc1 [Compound 90, 4-((7-(Cyclohexylmethoxy)-3H-[1,2,3]triazolo[4,5-d]pyrimidin-5-yl)amino) benzenesulfonamide]
IC50 [1, 17]: 2 ± 0.1 nM
IC50 [11]: 3.3 ± 0.2 µM
IC50 [2, 18]: 750 ± 60 nM
IC50 [3, 19]: 6.8 ± 0.7 µM
IC50 [4, 20]: 750 ± 30 nM

SMILES: CCc1nc(Nc2ccc(S(N)(=O)=O)cc2)nc2[nH]cnc12 [Compound 52, 4-(6-Ethyl-9H-purin-2-ylamino)benzenesulfonamide]
fold reduction of CDK2-inhibitory activity compared with 30 ([1]; compared with 6-ethoxypurine 30): ~10 fold
IC50 [1, 13]: 220 ± 3 nM

SMILES: NS(=O)(=O)c1ccc(Nc2nc(-c3cccc4c3oc3ccccc34)c3nc[nH]c3n2)cc1 [Compound 75, 4-(6-(4-Dibenzofuryl)-9H-purin-2-ylamino)benzenesulfonamide]
IC50 [1, 13]: 1400 ± 200 nM

SMILES: c1ccc(Nc2ncc3nc[nH]c3n2)cc1 [Compound 12, Phenyl-(9H-purin-2-yl)amine]
IC50 [1, 13]: 61000 ± 100 nM

— article PMC6111440, “Cyclin-Dependent Kinase (CDK) Inhibitors: Structure–Activity Relationships and Insights into the CDK-2 Selectivity of 6-Substituted 2-Arylaminopurines” (Journal of Medicinal Chemistry, 2016)
